From paper PMC9953353 (2023)

Legend:
[1] = system: Thi-5R-18 (DNA, aptamer) ATAGGAGTCACGACGACCAGAAGGGCAAATAGCATAATGGATCACATTAGATGAGCCCAGGCTATGTGCGTCTACCTCTTGACTAAT; experiment: AuNP colorimetric aptasensor; conditions: NaCl 0.25 M added for aggregation; 10^−7 M tested; response below one tenth of thiamethoxam at 10^−8 M
[2] = system: truncated Thi-5R-18 (DNA, aptamer) GAAGGGCAAATAGCATAATGGATCACATTAGATGAGCCCAGGCTATGTGCG; experiment: isothermal titration calorimetry; conditions: 5 mM KCl, 100 mM NaCl, 1 mM MgCl2; 50 mM Tris-HCl, pH 7.4, 25 °C; Kd could not be fitted; thiamethoxam 1 mM
[3] = system: Thi-5R-18 (DNA, aptamer) ATAGGAGTCACGACGACCAGAAGGGCAAATAGCATAATGGATCACATTAGATGAGCCCAGGCTATGTGCGTCTACCTCTTGACTAAT; experiment: isothermal titration calorimetry; conditions: 5 mM KCl, 100 mM NaCl, 1 mM MgCl2; 50 mM Tris-HCl, pH 7.4, 25 °C; 25 μM aptamer, 1 mM thiamethoxam

Structure (SMILES)	binding [1]	binding [2]	Kd [3]
CNC(=N[N+](=O)[O-])NCC1CCOC1 (stereo not drawn)	weak	–	–
CN/C(=N\[N+](=O)[O-])NCc1cnc(Cl)s1	weak	–	–
CN1COCN(Cc2cnc(Cl)s2)C1=N[N+](=O)[O-]	–	no	49.35 µM
O=C(O)CNCP(=O)(O)O	weak	–	–
O=[N+]([O-])N=C1NCCN1Cc1ccc(Cl)nc1	weak	–	–
